Consider nine compounds from ChEMBL document CHEMBL1139115, “Thyroid receptor ligands. Part 7: Indirect antagonists of the thyroid hormone receptor with improved affinity” (Bioorg Med Chem Lett, 2007).

The IC50 is the concentration at which inhibition is half-maximal. Read a low IC50 as greater potency in that assay. By EC50 is commonly meant the concentration at which the effect is half-maximal.

For assay [1], the target named is T1, Thyroid hormone receptor alpha (Homo sapiens, UniProt P10827).
T1 sequence (P10827 whole entry): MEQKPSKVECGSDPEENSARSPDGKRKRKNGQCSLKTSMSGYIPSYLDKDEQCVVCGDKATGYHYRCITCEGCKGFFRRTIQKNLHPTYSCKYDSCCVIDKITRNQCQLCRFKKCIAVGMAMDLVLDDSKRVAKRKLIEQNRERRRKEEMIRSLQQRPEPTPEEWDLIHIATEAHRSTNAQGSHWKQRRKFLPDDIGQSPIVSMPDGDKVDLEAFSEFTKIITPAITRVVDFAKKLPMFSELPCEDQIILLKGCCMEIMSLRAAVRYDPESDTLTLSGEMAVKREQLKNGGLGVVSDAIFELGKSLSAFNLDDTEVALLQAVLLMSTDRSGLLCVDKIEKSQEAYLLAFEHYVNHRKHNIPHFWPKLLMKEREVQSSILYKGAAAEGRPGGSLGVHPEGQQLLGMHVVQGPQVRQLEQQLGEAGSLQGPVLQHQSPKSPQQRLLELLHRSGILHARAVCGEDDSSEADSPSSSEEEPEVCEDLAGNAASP
Description: Binding affinity at human TRalpha1.

The species entered for assay [2] is Homo sapiens. The experiment in a line: Selectivity for human TR-alpha-1 to human TRbeta1.
In assay [3] the target is T2, Thyroid hormone receptor beta (Homo sapiens, UniProt P10828).
T2 sequence (P10828 whole entry): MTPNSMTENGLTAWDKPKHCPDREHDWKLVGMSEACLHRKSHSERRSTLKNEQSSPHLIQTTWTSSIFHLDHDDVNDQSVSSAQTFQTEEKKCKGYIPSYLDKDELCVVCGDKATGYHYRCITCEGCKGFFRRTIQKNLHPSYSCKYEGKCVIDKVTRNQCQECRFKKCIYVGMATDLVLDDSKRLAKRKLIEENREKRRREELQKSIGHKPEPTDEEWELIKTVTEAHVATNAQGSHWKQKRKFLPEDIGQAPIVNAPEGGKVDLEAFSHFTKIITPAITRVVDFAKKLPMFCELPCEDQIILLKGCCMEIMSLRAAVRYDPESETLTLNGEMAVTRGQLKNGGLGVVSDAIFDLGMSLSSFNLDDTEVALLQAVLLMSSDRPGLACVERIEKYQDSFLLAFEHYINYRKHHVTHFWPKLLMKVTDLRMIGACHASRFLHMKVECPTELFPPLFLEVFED
Description: Binding affinity at human TRbeta1.

Assay [4] deals with T2, Thyroid hormone receptor beta. The experiment in a line: Agonist activity at human TR-beta-1 expressed in CHO cells assessed as TRAF-beta-1-driven gene transactivation by alkaline phosphatase reporter gene assay. The assay is classed as functional, cell-based. (In general: Reporter assays use an easily measured gene product as a stand-in for the process of interest.)
Assay [5] has as its target T1, Thyroid hormone receptor alpha.
Description: Agonist activity at human TR-alpha-1 expressed in CHO cells assessed as TRAF-alpha-1-driven gene transactivation by alkaline phosphatase reporter gene assay

For `Cc1ccccc1COc1c(Br)cc(CCC(=O)O)cc1Br`, the IC50 in assay [1] came to 1.3 µM; in assay [3] it was 0.2 µM. The Ratio IC50 in assay [2] is 3.8.
The matching figures for `O=C(O)CCc1cc(Br)c(OCc2cccc(Cl)c2)c(Br)c1`: 0.5 µM, 0.19 µM and 1.5.
The matching figures for `O=C(O)CCc1cc(Br)c(OCc2ccccc2)c(Br)c1`: 0.68 µM, 0.23 µM and 1.7.
As for `O=C(O)CCc1cc(Br)c(OCc2cccc(C(F)(F)F)c2)c(Br)c1`, the IC50 in assay [1] was found to be 0.37 µM; in assay [3], 0.16 µM. The Ratio IC50 in assay [2] was found to be 1.4.
The matching figures for `Cc1cccc(COc2c(Br)cc(CCC(=O)O)cc2Br)c1`: 0.36 µM, 0.12 µM and 1.8.
The matching figures for `Cc1ccc(COc2c(Br)cc(CCC(=O)O)cc2Br)cc1`: 0.6 µM, 0.36 µM and 0.98.
The matching figures for `CCN(CC)c1cccc(COc2c(Br)cc(CCC(=O)O)cc2Br)c1`: 0.48 µM, 0.087 µM and 3.2.
Regarding `Nc1cccc(COc2c(Br)cc(CCC(=O)O)cc2Br)c1`, the IC50 in assay [1] stood at 2.6 µM; in assay [3] it was 0.82 µM. In assay [2], the Ratio IC50 came out at 4.5.
In the case of `CCNc1cccc(COc2c(Br)cc(CCC(=O)O)cc2Br)c1`, the values for the EC50 in assay [4] and in assay [5] were 0.049 µM and 0.023 µM, respectively. Moreover, the figures for the half-inhibitory concentration (IC50) in assay [1] and in assay [3] were 0.078 µM and 0.023 µM, respectively. Further, the Ratio IC50 in assay [2] came to 3.4.
